Measured values reported in PubChem BioAssay AID208 (DTP/NCI, 2004).
Several values for one entry are separate records, joined by “and”; a condition that tells them apart may be missing. Equal values may be shown once. Results filed as inconclusive are left out.

Test system: HT29 intrarenal xenograft, nude mice, tumor weight change
Assay: NCI In Vivo Anticancer Drug Screen. Data for tumor model HT29;CX-1 Human Adenocarcinoma (MER+) (intrarenal inoculation) in NU/NU BALB/C (nude) mice
Details: endpoint: mean tumor weight change, higher = larger tumour
Description: The antitumor activity of compounds was measured in mice bearing transplantable tumors. Survival or tumor size were measured and the results are expressed as the measurement made in the treated group (T) divided by the measurement made in the vehicle treated control group (C). The tumor model used in this assay is HT29;CX-1 Human Adenocarcinoma (MER+) (intrarenal inoculation) in NU/NU BALB/C (nude) mice

[1] = dose: 75.0 mg/kg/injection, schedule: Q04DX004 (sc), vehicle: saline with Tween-80
[2] = dose: 150.0 mg/kg/injection, schedule: Q04DX004 (sc), vehicle: saline with Tween-80
[3] = dose: 300.0 mg/kg/injection, schedule: Q04DX004 (sc), vehicle: saline with Tween-80
[4] = dose: 3.0 mg/kg/injection, schedule: Q04DX004 (sc), vehicle: saline
[5] = dose: 6.0 mg/kg/injection, schedule: Q04DX004 (sc), vehicle: saline
[6] = dose: 12.0 mg/kg/injection, schedule: Q04DX004 (sc), vehicle: saline
[7] = dose: 600.0 mg/kg/injection, schedule: Q04DX004 (sc), vehicle: saline with Tween-80
[8] = dose: 1200.0 mg/kg/injection, schedule: Q04DX004 (sc), vehicle: saline with Tween-80
[9] = dose: 2400.0 mg/kg/injection, schedule: Q04DX004 (sc), vehicle: saline with Tween-80
[10] = dose: 150.0 mg/kg/injection, schedule: Q04DX004 (ip), vehicle: DMSO
[11] = dose: 300.0 mg/kg/injection, schedule: Q04DX004 (sc), vehicle: Klucel (hydroxypropylcellulose) (HPC)
[12] = dose: 600.0 mg/kg/injection, schedule: Q04DX004 (sc), vehicle: Klucel (hydroxypropylcellulose) (HPC)
[13] = dose: 1200.0 mg/kg/injection, schedule: Q04DX004 (sc), vehicle: Klucel (hydroxypropylcellulose) (HPC)
[14] = dose: 2400.0 mg/kg/injection, schedule: Q04DX004 (sc), vehicle: Klucel (hydroxypropylcellulose) (HPC)

In the case of `Cc1ccoc1`, the T/C (dose: 50.0 mg/kg/injection, schedule: Q01DX010 (ip), vehicle: saline with Tween-80) is reported as 92 % of control, the T/C (dose: 100.0 mg/kg/injection, schedule: Q01DX010 (ip), vehicle: saline with Tween-80) is reported as 63 % of control and the T/C (dose: 200.0 mg/kg/injection, schedule: Q01DX010 (ip), vehicle: saline with Tween-80) is reported as 90 % of control.
In the case of `O=C1c2ccccc2C(=O)c2c1cn1c2Cc2ccccc2C1`, the T/C (dose: 37.5 mg/kg/injection, schedule: Q04DX004 (ip), vehicle: Klucel (hydroxypropylcellulose) (HPC)) is reported as 908 % of control, the T/C (dose: 75.0 mg/kg/injection, schedule: Q04DX004 (ip), vehicle: Klucel (hydroxypropylcellulose) (HPC)) is reported as 537 % of control and the T/C (dose: 150.0 mg/kg/injection, schedule: Q04DX004 (ip), vehicle: Klucel (hydroxypropylcellulose) (HPC)) is reported as 753 % of control. The T/C (dose: 300.0 mg/kg/injection, schedule: Q04DX004 (ip), vehicle: Klucel (hydroxypropylcellulose) (HPC)) was 188 % of control and the T/C (dose: 600.0 mg/kg/injection, schedule: Q04DX004 (ip), vehicle: Klucel (hydroxypropylcellulose) (HPC)) was 450 % of control.
For `FC(F)(F)c1nc2nc(Cl)c(Cl)nc2[nH]1`, the T/C [1] was 112 % of control, the T/C [2] was 42 % of control and the T/C [3] was 71 % of control.
For `C[N+](C)(C)c1ncnc2nc[nH]c12`, the T/C (dose: 50.0 mg/kg/injection, schedule: Q01DX010 (sc), vehicle: saline) was 111 % of control, the T/C (dose: 100.0 mg/kg/injection, schedule: Q01DX010 (sc), vehicle: saline) was 83 % of control and the T/C (dose: 200.0 mg/kg/injection, schedule: Q01DX010 (sc), vehicle: saline) was 29 % of control.
With `CN=C(NC#N)NCCSCc1nc[nH]c1C` the T/C (dose: 225.0 mg/kg/injection, schedule: Q04DX004 (sc), vehicle: Klucel (hydroxypropylcellulose) (HPC)) was 75 % of control, the T/C (dose: 450.0 mg/kg/injection, schedule: Q04DX004 (sc), vehicle: Klucel (hydroxypropylcellulose) (HPC)) was 99 % of control and the T/C (dose: 900.0 mg/kg/injection, schedule: Q04DX004 (sc), vehicle: Klucel (hydroxypropylcellulose) (HPC)) was 92 % of control.
In the case of `C[n+]1c(-c2cccc3ccccc23)c2cc(N)ccc2c2ccccc21`, the T/C [4] is reported as 119 % of control, the T/C [5] is reported as 152 % of control and the T/C [6] is reported as 78 % of control.
In the case of `O=CC(O)C(O)C(O)C(O)CO` (stereo not given), the T/C (dose: 75.0 mg/kg/injection, schedule: Q04DX004 (ip), vehicle: saline) is reported as 195 % of control, the T/C (dose: 150.0 mg/kg/injection, schedule: Q04DX004 (ip), vehicle: saline) is reported as 164 % of control and the T/C (dose: 600.0 mg/kg/injection, schedule: Q04DX004 (ip), vehicle: saline) is reported as 164 % of control.
In the case of `C=C(C)[C@@H]1CCc2c(O)c(O)c(=O)cc(C)c2C1`, the T/C (dose: 75.0 mg/kg/injection, schedule: Q04DX004 (sc), vehicle: saline) is reported as 192 % of control.
`O=C(Nc1cccc2c(OC(=O)C(Cl)Cl)c(N=Nc3ccc(S(=O)(=O)Nc4nccs4)cc3)cc(N=Nc3ccc(S(=O)(=O)Nc4nccs4)cc3)c12)C(Cl)Cl` (tested in a mixture with another compound) was tested, and the T/C [3] was 58 % of control, the T/C [7] was 89 % of control and the T/C [8] was 78 % of control. The T/C [9] was 159 % of control.
With `CCCCNc1ccc2nnc(C)n2n1` the T/C [10] was 116 % of control and the T/C (dose: 150.0 mg/kg/injection, schedule: Q04DX004 (ip), vehicle: sodium bicarbonate) was 86 % of control.
For `COc1cc(Cc2nccc3cc(OC)c(OC)cc23)c(C(C)=O)c(OC)c1`, the T/C (dose: 20.0 mg/kg/injection, schedule: Q01DX010 (sc), vehicle: saline) was 109 % of control and the T/C (dose: 80.0 mg/kg/injection, schedule: Q01DX010 (sc), vehicle: saline) was 64 % of control.
In the case of `O=C(O)[C@H](Cc1ccccc1)N1C(=O)c2ccccc2C1=O`, the T/C [10] is reported as 180 % of control and the T/C (dose: 300.0 mg/kg/injection, schedule: Q04DX004 (ip), vehicle: DMSO) is reported as 97 % of control.
With `COC1(OC)C2C=CC1CC2` the T/C [2] was 114 % of control, the T/C [3] was 72 % of control and the T/C [7] was 123 % of control. The T/C [8] was 197 % of control.
In the case of `Cc1c(N)nc(C(CC(N)=O)NCC(N)C(N)=O)nc1C(=O)NC(C(=O)NC(C)C(O)C(C)C(=O)NC(C(=O)NCCc1nc(-c2nc(C(=O)NCCCNC(C)c3ccccc3)cs2)cs1)C(C)O)C(OC1OC(CO)C(O)C(O)C1OC1OC(CO)C(O)C(OC(N)=O)C1O)c1cnc[nH]1` (stereo not given), the T/C (dose: 4.0 mg/kg/injection, schedule: Q01DX010 (sc), vehicle: saline) is reported as 11 % of control and the T/C (dose: 16.0 mg/kg/injection, schedule: Q01DX010 (sc), vehicle: saline) is reported as 25 % of control.
For `CC1(C)CC2(C)OC2C2(C1)N=NC(=Nc1ccccc1)O2` (stereo not given), the T/C [1] was 16 % of control, the T/C [2] was 124 % of control and the T/C [3] was 89 % of control. The T/C [7] was 69 % of control.
For `CN(C)CCOc1ccc2c(c1)C/C(=C/c1ncc([N+](=O)[O-])n1C)C2=O`, the T/C [3] was 89 % of control, the T/C [7] was 33 % of control and the T/C [8] was 69 % of control. For the same compound, the T/C [9] was 65 % of control.
For `Nc1nc(-c2ccccc2)c(Br)c(=O)[nH]1`, the T/C [3] was 124 % of control, the T/C [7] was 117 % of control and the T/C [9] was 102 % of control.
`CCCNC1=C(C)C(=O)C2=C(C1=O)[C@H](COC(N)=O)[C@]1(OC)[C@@H]3N[C@@H]3CN21` was tested, and the T/C (dose: 1.5 mg/kg/injection, schedule: Q04DX004 (sc), vehicle: saline) was 26 % of control, the T/C [4] was 91 % of control and the T/C [5] was 87 % of control and 91 % of control. The T/C [6] was 5 % of control and 26 % of control.
For `CNC=O`, the T/C (dose: 100.0 mg/kg/injection, schedule: Q01DX010 (ip), vehicle: saline) was 81 % of control, the T/C (dose: 200.0 mg/kg/injection, schedule: Q01DX010 (ip), vehicle: saline) was 64 % of control and the T/C (dose: 400.0 mg/kg/injection, schedule: Q01DX010 (ip), vehicle: saline) was -33 % of control.
With `O=C(Nc1cc(Cl)ccc1C(=O)O)c1cccc(C[n+]2ccccc2)c1` the T/C (dose: 150.0 mg/kg/injection, schedule: Q04DX004 (ip), vehicle: saline with Tween-80) was 100 % of control and the T/C (dose: 300.0 mg/kg/injection, schedule: Q04DX004 (ip), vehicle: saline with Tween-80) was 123 % of control.
`CC(=O)OCC(=O)[C@@]12OC(C)(C)O[C@@H]1C[C@H]1[C@@H]3CC(C=O)=C4C=C(OCCCl)CC[C@]4(C)[C@@]3(F)[C@@H](O)C[C@@]12C` was tested, and the T/C (dose: 50.0 mg/kg/injection, schedule: Q04DX004 (sc), vehicle: Klucel (hydroxypropylcellulose) (HPC)) was 101 % of control and the T/C (dose: 100.0 mg/kg/injection, schedule: Q04DX004 (sc), vehicle: Klucel (hydroxypropylcellulose) (HPC)) was 23 % of control.
With `CNc1nc(NC)nc(NC)n1` the T/C (dose: 12.5 mg/kg/injection, schedule: Q01DX010 (sc), vehicle: Klucel (hydroxypropylcellulose) (HPC)) was 154 % of control and the T/C (dose: 50.0 mg/kg/injection, schedule: Q01DX010 (sc), vehicle: Klucel (hydroxypropylcellulose) (HPC)) was 73 % of control.
With `CSc1ncnc2c1ncn2C1OC(CO)C(O)C1O` (stereo not given) the T/C (dose: 37.5 mg/kg/injection, schedule: Q04DX004 (sc), vehicle: saline + alcohol) was 101 % of control, the T/C (dose: 75.0 mg/kg/injection, schedule: Q04DX004 (sc), vehicle: saline + alcohol) was 30 % of control and the T/C (dose: 150.0 mg/kg/injection, schedule: Q04DX004 (sc), vehicle: saline + alcohol) was 12 % of control.
For `COC(=O)Nc1nc2ccc(SC)cc2c(=O)[nH]1`, the T/C [11] was 122 % of control, the T/C [12] was 95 % of control and the T/C [13] was 48 % of control. The T/C [14] was 37 % of control.
In the case of `COc1cc(C(=O)c2cocc2C(=O)c2ccc3c(c2)OCO3)cc(OC)c1OC`, the T/C [11] is reported as 103 % of control, the T/C [12] is reported as 57 % of control and the T/C [13] is reported as 89 % of control. For the same compound, the T/C [14] was 66 % of control.
For `Nc1nc(=S)c2ncn(C3CC(O)C(CO)O3)c2[nH]1` (stereo not given), the T/C (dose: 1.88 mg/kg/injection, schedule: Q01DX010 (sc), vehicle: saline with Tween-80) was 164 % of control.
For `CCCCCCCC(=O)OCC(=O)[C@]1(O)Cc2c(O)c3c(c(O)c2[C@@H](OC2CC(N)C(O)C(C)O2)C1)C(=O)c1c(OC)cccc1C3=O` (stereo not given in full), the T/C (dose: 2.0 mg/kg/injection, schedule: Q04DX004 (sc), vehicle: saline) was 63 % of control, the T/C (dose: 4.0 mg/kg/injection, schedule: Q04DX004 (sc), vehicle: saline) was 78 % of control and the T/C (dose: 8.0 mg/kg/injection, schedule: Q04DX004 (sc), vehicle: saline) was 48 % of control. For the same compound, the T/C (dose: 16.0 mg/kg/injection, schedule: Q04DX004 (sc), vehicle: saline) was 30 % of control.
